Patent publication US8778385B1, “Medicated animal food composition” (I Care for Dogs Corp., priority 2005, dated 2014)
“Also recorded” adds a separate entry of the source.

Key:
[1] = tested on: canines; conditions: cited from earlier work
[2] = tested on: tear staining; assay: controlling tear staining in Maltese dogs; assay type: in vivo
From the text: In preparation of the medicated animal food composition, all of the ingredients (except for the tylosin) are initially processed into a powder and then mixed together with the tylosin, as a tartrate. Tylosin is available from the Omaha Vaccine Co. under the brand name TYLAN and is a veterinary antibiotic that is FDA-approved for fowl (chickens/turkeys) and swine (pigs). Tylosin is used primarily to treat respiratory disease caused by Mycoplasma gallisepticum.

Row | Compound | side effects when used to treat excessive tearing [1] | effect in controlling tear staining [2]
1 | CN(C)[C@@H]1C(O)=C(C(N)=O)C(=O)[C@@]2(O)C(O)=C3C(=O)c4c(O)cccc4[C@@](C)(O)[C@H]3C[C@@H]12 [Tetracycline] | upset stomach; also recorded: staining of the teeth | 
2 | CC[C@H]1OC(=O)C[C@@H](O)[C@H](C)[C@@H](O[C@@H]2O[C@H](C)[C@@H](O[C@H]3C[C@@](C)(O)[C@@H](O)[C@H](C)O3)[C@H](N(C)C)[C@H]2O)[C@@H](CC=O)C[C@@H](C)C(=O)/C=C/C(C)=C/[C@@H]1CO[C@@H]1O[C@H](C)[C@@H](O)[C@@H](OC)[C@H]1OC [Tylosin] |  | some beneficial effect
